Test results: DBAASP
In brackets after ≈: the same amount, converted by molar mass. Several values for one entry are separate records, joined by “and”; a condition that tells them apart may be missing. Equal values may be shown once. Values belong to the molecule of their own block, whether it stands above or below them.

Legend:
Experiment in all cases: ≥ marks a high value that may be exact or a test limit, other limits are often not marked, values filed in µg/mL are converted to µM
[1] = test system: Escherichia coli ATCC 25922
Escherichia coli = test system: Escherichia coli
[2] = test system: Staphylococcus aureus ATCC 29213
[3] = test system: Enterococcus faecalis ATCC 29212
[4] = test system: Pseudomonas aeruginosa ATCC 27853
[5] = test system: Staphylococcus epidermidis ATCC 12228
Bacillus subtilis = test system: Bacillus subtilis
Staphylococcus aureus = test system: Staphylococcus aureus
Pseudomonas aeruginosa = test system: Pseudomonas aeruginosa
[6] = test system: Candida albicans ATCC 90028
[7] = test system: Salmonella enterica subsp. enterica serovar Typhimurium ATCC 14028
[8] = test system: Pseudomonas aeruginosa PAO1

- MIC [1]: 5 µM (≈ 8.99 µg/mL)
- MIC (Escherichia coli): 20 µM (≈ 36 µg/mL)
- MIC [2]: > 40 µM
Compound: CC(C)C[C@H](NC(=O)[C@H](CCCCN)NC(=O)[C@@H]1CSSC[C@H](N)C(=O)N[C@@H](CCCCN)C(=O)N[C@@H](CCCCN)C(=O)N[C@@H](CC(C)C)C(=O)N[C@@H](CC(C)C)C(=O)N[C@@H](CCCCN)C(=O)N[C@@H](CC(C)C)C(=O)N[C@@H](CC(C)C)C(=O)N[C@@H](CCCCN)C(=O)N[C@@H](CCCCN)C(=O)N[C@@H](CC(C)C)C(=O)N1)C(=O)N[C@@H](C)C(=O)NCC(=O)O [CKKLLKLLKKLCKLAG]

- MIC [3]: 145 µM (≈ 200 µg/mL)
- MIC [1]: 145 µM (≈ 200 µg/mL)
Compound: CSCC[C@H](NC(=O)[C@H](CCCN=C(N)N)NC(=O)[C@H](Cc1c[nH]c2ccccc12)NC(=O)[C@H](CCC(N)=O)NC(=O)[C@H](Cc1c[nH]c2ccccc12)NC(=O)[C@H](CC(C)C)NC(=O)[C@H](CC(C)C)NC(=O)[C@H](C)NC(=O)[C@H](CCCCN)NC(=O)[C@@H](N)Cc1ccccc1)C(=O)O [FKALLWQWRM]

- MIC [3]: 141 µM (≈ 200 µg/mL)
- MIC [1]: 70.4 µM (≈ 100 µg/mL)
Compound: CSCC[C@H](NC(=O)[C@H](CCCN=C(N)N)NC(=O)[C@H](Cc1c[nH]c2ccccc12)NC(=O)[C@H](CCC(N)=O)NC(=O)[C@H](Cc1c[nH]c2ccccc12)NC(=O)[C@H](CC(C)C)NC(=O)[C@H](CCCN=C(N)N)NC(=O)[C@H](C)NC(=O)[C@H](CCCCN)NC(=O)[C@@H](N)Cc1ccccc1)C(=O)O [FKARLWQWRM]

- MIC [1]: 5 µM (≈ 12.8 µg/mL)
- MIC [4]: 51.3 µM (≈ 131 µg/mL)
- MIC [2]: 73 µM (≈ 187 µg/mL)
Compound: CC[C@H](C)[C@H](NC(=O)CN)C(=O)NCC(=O)N[C@@H](CCCCN)C(=O)N[C@@H](Cc1ccccc1)C(=O)N[C@@H](CC(C)C)C(=O)N[C@@H](Cc1cnc[nH]1)C(=O)N[C@@H](CCCCN)C(=O)N[C@H](C(=O)NCC(=O)N[C@@H](CO)C(=O)N[C@@H](Cc1ccccc1)C(=O)N[C@H](C(=O)N[C@@H](CCCCN)C(=O)N[C@@H](CO)C(=O)N[C@@H](Cc1c[nH]c2ccccc12)C(=O)N[C@@H](CCCCN)C(=O)NCC(=O)N[C@@H](CCC(=O)O)C(=O)N[C@H](C(=O)N[C@@H](CCSC)C(=O)N[C@@H](CC(N)=O)C(=O)N[C@@H](CO)C(N)=O)[C@@H](C)CC)[C@@H](C)CC)C(C)C [GIGKFLHKVGSFIKSWKGEIMNS]

- MIC [1]: > 80 µM
- MIC [5]: 10 µM (≈ 26.9 µg/mL)
Compound: CC[C@H](C)[C@H](NC(=O)CN)C(=O)N[C@@H](CCCCN)C(=O)N[C@@H](CCCCN)C(=O)N[C@@H](Cc1c[nH]c2ccccc12)C(=O)N[C@@H](CC(C)C)C(=O)N[C@@H](Cc1cnc[nH]1)C(=O)N[C@@H](CO)C(=O)N[C@@H](C)C(=O)N[C@@H](CCCCN)C(=O)N[C@@H](CCCCN)C(=O)N1CCC[C@H]1C(=O)N1CCC[C@H]1C(=O)N[C@@H](CCCCN)C(=O)N[C@@H](CCCCN)C(=O)N[C@@H](Cc1ccccc1)C(=O)N[C@H](C(=O)N[C@@H](CCCCN)C(=O)N[C@@H](CCCCN)C(=O)N[C@H](C(=O)N[C@@H](CCSC)C(=O)N[C@@H](CC(N)=O)C(=O)N[C@@H](CO)C(N)=O)[C@@H](C)CC)C(C)C [GIKKWLHSAKKPPKKFVKKIMNS]

- MIC (Bacillus subtilis): 8.5 µM (≈ 15 µg/mL)
- MIC (Escherichia coli): 13 µM (≈ 22.9 µg/mL)
Compound: CC[C@H](C)[C@H](N)C(=O)N[C@@H](CC(=O)O)C(=O)N[C@@H](Cc1c[nH]c2ccccc12)C(=O)N[C@@H](CCCCN)C(=O)N[C@@H](CCCCN)C(=O)N[C@H](C(=O)N[C@@H](Cc1ccccc1)C(=O)N[C@@H](CCC(=O)O)C(=O)N[C@@H](CCCCN)C(=O)N[C@H](C(=O)N[C@@H](CCCCN)C(=O)N[C@@H](CC(N)=O)C(=O)N[C@@H](CC(C)C)C(=O)N[C@H](C(N)=O)C(C)C)C(C)C)[C@@H](C)CC [IDWKKIFEKVKNLV]

- MIC (Escherichia coli): 2.7 µM (≈ 6.9 µg/mL)
- MIC (Staphylococcus aureus): 22 µM (≈ 56.3 µg/mL)
Compound: CC[C@H](C)[C@H](N)C(=O)N[C@H](C(=O)N[C@@H](CO)C(=O)N[C@H](C(=O)N[C@H](C(=O)NCC(=O)N[C@@H](CCCCN)C(=O)N[C@@H](CC(C)C)C(=O)N1CCC[C@H]1C(=O)N[C@@H](CCCCN)C(=O)N[C@@H](Cc1c[nH]c2ccccc12)C(=O)N[C@H](C(=O)N[C@H](C(=O)N[C@@H](CCCCN)C(=O)N[C@H](C(=O)N[C@H](C(=O)N[C@@H](CC(N)=O)C(=O)N[C@@H](CCCCN)C(=O)N[C@@H](Cc1ccccc1)C(=O)N[C@H](C(=O)N[C@@H](CCCCN)C(=O)N[C@@H](CCCCN)C(=O)O)[C@@H](C)O)C(C)C)[C@@H](C)O)[C@@H](C)CC)[C@@H](C)CC)[C@@H](C)CC)[C@@H](C)O)[C@@H](C)CC [IISTIGKLPKWIIKTVNKFTKK]

- MIC (Escherichia coli): 4.1 µM (≈ 8 µg/mL)
- MIC (Pseudomonas aeruginosa): 5.8 µM (≈ 11.3 µg/mL)
- MIC (Staphylococcus aureus): 3 µM (≈ 5.85 µg/mL)
Compound: CC(C)C[C@H](NC(=O)[C@H](C)NC(=O)[C@@H](N)CCCCN)C(=O)N[C@@H](C)C(=O)N[C@@H](C)C(=O)N[C@@H](CC(C)C)C(=O)N[C@@H](CC(C)C)C(=O)N[C@@H](CCCCN)C(=O)N[C@@H](CCCCN)C(=O)N[C@@H](Cc1c[nH]c2ccccc12)C(=O)N[C@@H](C)C(=O)N[C@@H](CCCCN)C(=O)N[C@@H](CC(C)C)C(=O)N[C@@H](CC(C)C)C(=O)N[C@@H](C)C(=O)N[C@@H](C)C(=O)N[C@@H](CC(C)C)C(=O)N[C@@H](CCCCN)C(N)=O [KALAALLKKWAKLLAALK]

- MIC (Escherichia coli): 6.2 µM (≈ 12.1 µg/mL)
- MIC (Pseudomonas aeruginosa): 12.4 µM (≈ 24.2 µg/mL)
- MIC (Staphylococcus aureus): 1.6 µM (≈ 3.12 µg/mL)
Compound: CC(C)C[C@H](NC(=O)[C@H](C)NC(=O)[C@H](CCCCN)NC(=O)[C@H](CC(C)C)NC(=O)[C@H](CC(C)C)NC(=O)[C@H](Cc1c[nH]c2ccccc12)NC(=O)[C@H](CCCCN)NC(=O)[C@H](CC(C)C)NC(=O)[C@H](C)NC(=O)[C@H](C)NC(=O)[C@H](CCCCN)NC(=O)[C@H](C)NC(=O)[C@H](CC(C)C)NC(=O)[C@H](CC(C)C)NC(=O)[C@@H](N)CCCCN)C(=O)N[C@@H](CCCCN)C(=O)N[C@@H](C)C(=O)N[C@@H](C)C(N)=O [KLLAKAALKWLLKALKAA]

- MIC [6]: 20 µM (≈ 30.3 µg/mL)
- MIC [1]: 5 µM (≈ 7.57 µg/mL)
- MIC [4]: 5 µM (≈ 7.57 µg/mL)
- MIC [2]: 20 µM (≈ 30.3 µg/mL)
Compound: CC[C@H](C)[C@H](NC(=O)[C@H](CCCN=C(N)N)NC(=O)[C@H](C)NC(=O)[C@@H](NC(=O)[C@@H](NC(=O)[C@H](CCCN=C(N)N)NC(=O)[C@@H](N)CCCCN)[C@@H](C)CC)C(C)C)C(=O)N[C@@H](CCCCN)C(=O)N[C@@H](CC(=O)O)C(=O)N[C@@H](Cc1ccccc1)C(=O)N[C@@H](CC(C)C)C(=O)N[C@@H](CCCN=C(N)N)C(=O)O [KRIVARIKDFLR]

- MIC (Pseudomonas aeruginosa): 5.07 µM (≈ 12.5 µg/mL)
Compound: CC[C@H](C)[C@H](NC(=O)[C@H](Cc1ccccc1)NC(=O)[C@H](CO)NC(=O)[C@H](CCCCN)NC(=O)[C@H](Cc1c[nH]c2ccccc12)NC(=O)[C@@H](N)CCCCN)C(=O)N[C@@H](CCCCN)C(=O)N[C@@H](CCCCN)C(=O)N[C@@H](CC(C)C)C(=O)N[C@@H](CC(C)C)C(=O)N[C@@H](CO)C(=O)N[C@@H](CCCCN)C(=O)N[C@@H](Cc1ccccc1)C(=O)N[C@@H](CC(C)C)C(=O)N[C@@H](Cc1cnc[nH]1)C(=O)N[C@@H](CO)C(=O)N[C@@H](C)C(=O)N[C@@H](CCCCN)C(=O)N[C@@H](CCCCN)C(=O)N[C@@H](Cc1ccccc1)C(N)=O [KWKSFIKKLLSKFLHSAKKF]

- MIC (Pseudomonas aeruginosa): 5.04 µM (≈ 12.5 µg/mL)
Compound: CC[C@H](C)[C@H](NC(=O)[C@H](Cc1ccccc1)NC(=O)[C@H](CO)NC(=O)[C@H](CCCCN)NC(=O)[C@H](Cc1c[nH]c2ccccc12)NC(=O)[C@@H](N)CCCCN)C(=O)N[C@@H](CCCCN)C(=O)N[C@@H](CCCCN)C(=O)N[C@@H](CC(C)C)C(=O)N[C@H](C(=O)N[C@@H](CO)C(=O)N[C@@H](CCCCN)C(=O)N[C@@H](Cc1ccccc1)C(=O)N[C@@H](CC(C)C)C(=O)N[C@@H](Cc1cnc[nH]1)C(=O)N[C@@H](CC(C)C)C(=O)N[C@@H](C)C(=O)N[C@@H](CCCCN)C(=O)N[C@@H](CCCCN)C(=O)N[C@@H](Cc1ccccc1)C(N)=O)[C@@H](C)O [KWKSFIKKLTSKFLHLAKKF]

- MIC [3]: 12.5 µM (≈ 33.1 µg/mL)
- MIC [1]: 12.5 µM (≈ 33.1 µg/mL)
- MIC [7]: 25 µM (≈ 66.2 µg/mL)
Compound: CC[C@H](C)[C@H](NC(=O)[C@H](CCCN=C(N)N)NC(=O)[C@H](C)NC(=O)[C@H](CC(N)=O)NC(=O)[C@H](CCCCN)NC(=O)[C@@H](N)CC(C)C)C(=O)N[C@H](C(=O)NCC(=O)N[C@@H](CCC(=O)O)C(=O)N[C@@H](CC(C)C)C(=O)N[C@H](C(=O)NCC(=O)N[C@@H](Cc1ccccc1)C(=O)N[C@@H](CCCN=C(N)N)C(=O)N1CCC[C@H]1C(=O)N[C@H](C(=O)N[C@@H](CCCN=C(N)N)C(=O)N1CCC[C@H]1C(=O)N[C@@H](CCC(N)=O)C(=O)N[C@H](C(=O)N[C@@H](CCCN=C(N)N)C(=O)N[C@@H](CC(C)C)C(=O)N[C@@H](CCC(=O)O)C(=O)O)C(C)C)C(C)C)[C@@H](C)O)C(C)C [LKNARIVGELTGFRPVRPQVRLE]

- MIC [3]: > 32 µM
- MIC [8]: 16 µM and 32 µM
- MIC [2]: > 32 µM
Compound: CC(C)C[C@H](NC(=O)[C@H](CCCN=C(N)N)NC(=O)[C@@H](N)CCCN=C(N)N)C(=O)N[C@@H](CCCN=C(N)N)C(=O)N1CCC[C@H]1C(=O)N[C@@H](CCCN=C(N)N)C(=O)N[C@@H](CCCN=C(N)N)C(=O)N1CCC[C@H]1C(=O)N[C@@H](CCCN=C(N)N)C(=O)N[C@@H](CC(C)C)C(=O)N1CCC[C@H]1C(=O)N[C@@H](CCCN=C(N)N)C(=O)N1CCC[C@H]1C(=O)N[C@@H](CCCN=C(N)N)C(=O)N1CCC[C@H]1C(=O)N[C@@H](CCCN=C(N)N)C(=O)O [RRLRPRRPRLPRPRPR]

- MIC [1]: 80 µM (≈ 130 µg/mL)
- MIC [4]: > 160 µM
- MIC [2]: 40 µM (≈ 65.1 µg/mL)
Compound: NC(=O)[C@H](Cc1ccccc1)NC(=O)[C@H](Cc1ccccc1)NC(=O)[C@H](Cc1ccccc1)NC(=O)[C@@H]1CCCN1C(=O)[C@H](CCCN=C(N)N)NC(=O)[C@@H]1CCCN1C(=O)[C@H](CCCN=C(N)N)NC(=O)[C@@H]1CCCN1C(=O)[C@H](CCCN=C(N)N)NC(=O)[C@@H]1CCCN1C(=O)[C@H](CCCN=C(N)N)NC(=O)[C@@H](N)CCCN=C(N)N [RRPRPRPRPFFF]
